The results in this text go back to paper PMC10269895 (Microbiology Spectrum, 2023).

Each structure is given as a SMILES string.

Series [1] relates to G-protein-coupled receptors, ion channels, NET and DAT panel. The series can be described thus: Pharmacological off-target profiling: in vitro binding assays (CEREP). Set-up: species or system human unless stated (rat). Conditions: 0.01 mM. An excerpt:
FIG 3 In vitro binding assays. Inhibitory effects of GE81112A were investigated for G-protein-coupled receptors for adenosine (A1 and A2A), […] (α1A, α2A, β1, and β2), cannabinoids (CB1 and CB2), dopamine (D1 and D2S), histamine (H1 and H2), acetylcholine (M1, M2, and M3), opioids (μ-MOP), and serotonin (5-HT1A, 5-HT2A, and 5-HT2B), the ion channels Gly (rat), nAChR (α4β2), nAChR (muscle type), PCP (rat), Cav1.2 (rat), Kv (rat), SKCa (rat), and GABACl (rat), NET (GenBank accession number P23975), and DAT (GenBank accession number Q01959).

The target in another series is hNaV1.2 (Homo sapiens, UniProt Q99250). The series can be described thus: Off-target ion channel profiling (automated patch clamp). Format: cell-based. The conditions noted are these: concentrations up to 30 μM. Here is the method: (§1) The effect of GE81112A on the hERG and other ion channels (hNaV1.5, hNaV1.2, hCaV3.1, or hKV4.3) was investigated using an automated patch-clamp method, as described by Houtmann et al. ([17]). GE81112A was diluted in a 5-fold 1:3 dilution series with a final concentration range of 30 to 0.12 μM in extracellular medium (150 mM NaCl, 4 mM KCl, 2 mM CaCl2, 1 mM MgCl2, 10 mM HEPES, 10 mM glucose, 0.06% Pluronic F-68, 0.3% residual DMSO). The hERG channel was constitutively expressed in Chinese hamster ovary (CHO) cells (CHO hERG Duo; B’SYS GmbH, Witterswil, Switzerland). CHO cells were grown at a concentration of 8 × 10^6 CHO cells/mL in QPlates (Sophion/Biolin Scientific, Ballerup, Denmark) in Ex-Cell animal component-free CHO medium (Sigma-Aldrich) supplemented with 25 mM HEPES, 100 U/mL penicillin-streptomycin, and 0.004% soybean trypsin inhibitor. To each well, we added extracellular medium containing the desired concentration of GE81112A. The peptide-hERG interaction was quantified by recording the tail current following repolarization of the hERG channels using a QPatch HTX station (Sophion/Biolin Scientific). The IC50 values were determined using the values from three replicates of the GE81112A concentration series with respect to the terfenadine citrate positive control and extracellular medium (blank).
Chain of hNaV1.2 (Q99250 whole entry): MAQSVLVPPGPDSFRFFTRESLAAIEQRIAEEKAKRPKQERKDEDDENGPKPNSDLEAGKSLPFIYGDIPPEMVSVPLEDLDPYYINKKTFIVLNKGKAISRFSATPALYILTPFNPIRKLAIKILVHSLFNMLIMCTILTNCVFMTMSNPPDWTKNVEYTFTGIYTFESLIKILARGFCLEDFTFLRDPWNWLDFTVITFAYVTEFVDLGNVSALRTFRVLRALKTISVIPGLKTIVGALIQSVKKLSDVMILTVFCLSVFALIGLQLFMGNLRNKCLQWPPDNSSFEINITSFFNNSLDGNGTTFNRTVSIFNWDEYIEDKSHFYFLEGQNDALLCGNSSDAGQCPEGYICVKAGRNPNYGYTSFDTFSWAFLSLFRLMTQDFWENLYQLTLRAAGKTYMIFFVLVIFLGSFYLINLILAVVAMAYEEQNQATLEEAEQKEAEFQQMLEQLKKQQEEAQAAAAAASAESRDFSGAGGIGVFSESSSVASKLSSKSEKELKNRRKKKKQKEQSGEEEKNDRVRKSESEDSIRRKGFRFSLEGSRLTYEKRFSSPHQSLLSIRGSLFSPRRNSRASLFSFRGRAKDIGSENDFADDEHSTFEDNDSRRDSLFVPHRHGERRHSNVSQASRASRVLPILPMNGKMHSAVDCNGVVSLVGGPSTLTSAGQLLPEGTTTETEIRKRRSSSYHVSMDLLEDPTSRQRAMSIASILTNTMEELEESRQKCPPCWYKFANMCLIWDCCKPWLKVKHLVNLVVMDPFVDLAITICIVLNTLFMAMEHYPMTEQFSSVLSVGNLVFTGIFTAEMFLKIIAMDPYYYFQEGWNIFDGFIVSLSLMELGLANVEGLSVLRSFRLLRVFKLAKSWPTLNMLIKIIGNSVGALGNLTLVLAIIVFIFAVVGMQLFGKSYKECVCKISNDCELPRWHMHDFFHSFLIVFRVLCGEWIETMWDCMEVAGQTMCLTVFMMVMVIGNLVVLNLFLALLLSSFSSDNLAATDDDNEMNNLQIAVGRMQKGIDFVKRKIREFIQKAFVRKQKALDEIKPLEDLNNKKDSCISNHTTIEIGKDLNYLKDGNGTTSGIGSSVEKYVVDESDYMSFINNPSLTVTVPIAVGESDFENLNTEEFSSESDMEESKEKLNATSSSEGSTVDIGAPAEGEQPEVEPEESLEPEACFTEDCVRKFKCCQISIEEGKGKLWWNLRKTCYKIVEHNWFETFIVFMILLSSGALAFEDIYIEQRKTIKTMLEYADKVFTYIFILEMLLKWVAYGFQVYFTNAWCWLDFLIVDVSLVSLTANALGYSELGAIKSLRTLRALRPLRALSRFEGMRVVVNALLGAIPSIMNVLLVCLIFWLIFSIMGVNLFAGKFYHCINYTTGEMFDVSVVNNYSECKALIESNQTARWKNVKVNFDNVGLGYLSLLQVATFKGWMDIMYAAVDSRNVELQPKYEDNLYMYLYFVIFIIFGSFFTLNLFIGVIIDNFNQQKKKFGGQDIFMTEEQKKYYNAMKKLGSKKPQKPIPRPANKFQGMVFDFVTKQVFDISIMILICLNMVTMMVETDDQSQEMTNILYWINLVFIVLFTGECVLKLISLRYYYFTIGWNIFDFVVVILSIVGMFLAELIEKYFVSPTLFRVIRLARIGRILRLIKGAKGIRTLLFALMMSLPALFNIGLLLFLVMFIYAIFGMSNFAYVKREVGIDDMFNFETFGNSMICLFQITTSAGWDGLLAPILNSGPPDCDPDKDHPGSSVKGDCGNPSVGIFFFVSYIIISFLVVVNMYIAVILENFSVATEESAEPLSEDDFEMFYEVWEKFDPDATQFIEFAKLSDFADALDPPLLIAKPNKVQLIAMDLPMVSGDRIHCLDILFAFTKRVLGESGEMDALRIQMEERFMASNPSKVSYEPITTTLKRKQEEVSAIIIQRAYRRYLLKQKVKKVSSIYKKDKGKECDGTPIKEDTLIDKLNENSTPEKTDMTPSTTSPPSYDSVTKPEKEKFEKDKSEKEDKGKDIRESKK
(In patch-clamp work, channel activity is measured electrically.)

Another series concerns the target hCaV3.1 (Homo sapiens, UniProt O43497). The description is as above. Format: cell-based. Conditions: concentrations up to 30 μM. As for the experimental part: as §1
For the next series, the target named is T1, hERG (Homo sapiens, UniProt Q12809).
T1 construct: host or cells: CHO
T1 sequence (Q12809 whole entry): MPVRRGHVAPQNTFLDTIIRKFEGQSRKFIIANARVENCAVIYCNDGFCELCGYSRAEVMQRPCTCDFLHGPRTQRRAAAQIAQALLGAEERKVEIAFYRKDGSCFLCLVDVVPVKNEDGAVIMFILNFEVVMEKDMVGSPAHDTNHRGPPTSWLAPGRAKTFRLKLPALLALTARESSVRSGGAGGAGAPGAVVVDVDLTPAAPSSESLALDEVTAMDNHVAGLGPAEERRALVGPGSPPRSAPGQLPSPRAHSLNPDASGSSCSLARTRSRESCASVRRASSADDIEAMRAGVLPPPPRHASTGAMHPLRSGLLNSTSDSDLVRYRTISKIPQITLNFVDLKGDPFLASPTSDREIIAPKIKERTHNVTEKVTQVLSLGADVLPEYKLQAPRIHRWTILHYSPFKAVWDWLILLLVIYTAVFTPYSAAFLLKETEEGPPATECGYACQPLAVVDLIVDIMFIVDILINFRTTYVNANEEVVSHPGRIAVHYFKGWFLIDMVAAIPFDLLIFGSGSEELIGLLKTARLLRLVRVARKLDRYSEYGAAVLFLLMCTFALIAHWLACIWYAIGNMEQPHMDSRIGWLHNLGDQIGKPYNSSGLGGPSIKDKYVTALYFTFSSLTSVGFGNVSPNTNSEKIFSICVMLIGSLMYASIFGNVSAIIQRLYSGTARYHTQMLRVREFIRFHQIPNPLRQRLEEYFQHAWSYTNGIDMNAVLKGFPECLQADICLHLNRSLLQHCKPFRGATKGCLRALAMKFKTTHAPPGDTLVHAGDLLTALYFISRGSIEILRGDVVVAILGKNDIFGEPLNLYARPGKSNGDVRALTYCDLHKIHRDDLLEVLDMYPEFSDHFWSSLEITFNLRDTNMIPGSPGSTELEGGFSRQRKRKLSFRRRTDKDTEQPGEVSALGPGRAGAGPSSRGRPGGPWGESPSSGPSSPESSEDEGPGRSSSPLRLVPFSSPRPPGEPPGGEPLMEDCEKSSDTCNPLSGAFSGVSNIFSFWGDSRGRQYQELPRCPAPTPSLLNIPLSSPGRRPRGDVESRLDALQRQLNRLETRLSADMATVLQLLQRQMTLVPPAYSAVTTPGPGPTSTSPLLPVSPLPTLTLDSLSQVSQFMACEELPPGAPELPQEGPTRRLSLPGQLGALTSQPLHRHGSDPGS
The description is as above. Format: cell-based. The conditions noted are these: concentrations up to 30 μM. As for the experimental part:
as §1

The target in the next series is hNaV1.5 (Homo sapiens, UniProt Q14524). Described as above. The format is cell-based. Conditions: concentrations up to 30 μM. Here is the method:
as §1

The next series has as its target hKV4.3 (Homo sapiens, UniProt Q9UK17). The description is as above. The format is cell-based. Conditions: concentrations up to 30 μM. As for the experimental part:
as §1

Chain of hNaV1.5 (Q14524 whole entry): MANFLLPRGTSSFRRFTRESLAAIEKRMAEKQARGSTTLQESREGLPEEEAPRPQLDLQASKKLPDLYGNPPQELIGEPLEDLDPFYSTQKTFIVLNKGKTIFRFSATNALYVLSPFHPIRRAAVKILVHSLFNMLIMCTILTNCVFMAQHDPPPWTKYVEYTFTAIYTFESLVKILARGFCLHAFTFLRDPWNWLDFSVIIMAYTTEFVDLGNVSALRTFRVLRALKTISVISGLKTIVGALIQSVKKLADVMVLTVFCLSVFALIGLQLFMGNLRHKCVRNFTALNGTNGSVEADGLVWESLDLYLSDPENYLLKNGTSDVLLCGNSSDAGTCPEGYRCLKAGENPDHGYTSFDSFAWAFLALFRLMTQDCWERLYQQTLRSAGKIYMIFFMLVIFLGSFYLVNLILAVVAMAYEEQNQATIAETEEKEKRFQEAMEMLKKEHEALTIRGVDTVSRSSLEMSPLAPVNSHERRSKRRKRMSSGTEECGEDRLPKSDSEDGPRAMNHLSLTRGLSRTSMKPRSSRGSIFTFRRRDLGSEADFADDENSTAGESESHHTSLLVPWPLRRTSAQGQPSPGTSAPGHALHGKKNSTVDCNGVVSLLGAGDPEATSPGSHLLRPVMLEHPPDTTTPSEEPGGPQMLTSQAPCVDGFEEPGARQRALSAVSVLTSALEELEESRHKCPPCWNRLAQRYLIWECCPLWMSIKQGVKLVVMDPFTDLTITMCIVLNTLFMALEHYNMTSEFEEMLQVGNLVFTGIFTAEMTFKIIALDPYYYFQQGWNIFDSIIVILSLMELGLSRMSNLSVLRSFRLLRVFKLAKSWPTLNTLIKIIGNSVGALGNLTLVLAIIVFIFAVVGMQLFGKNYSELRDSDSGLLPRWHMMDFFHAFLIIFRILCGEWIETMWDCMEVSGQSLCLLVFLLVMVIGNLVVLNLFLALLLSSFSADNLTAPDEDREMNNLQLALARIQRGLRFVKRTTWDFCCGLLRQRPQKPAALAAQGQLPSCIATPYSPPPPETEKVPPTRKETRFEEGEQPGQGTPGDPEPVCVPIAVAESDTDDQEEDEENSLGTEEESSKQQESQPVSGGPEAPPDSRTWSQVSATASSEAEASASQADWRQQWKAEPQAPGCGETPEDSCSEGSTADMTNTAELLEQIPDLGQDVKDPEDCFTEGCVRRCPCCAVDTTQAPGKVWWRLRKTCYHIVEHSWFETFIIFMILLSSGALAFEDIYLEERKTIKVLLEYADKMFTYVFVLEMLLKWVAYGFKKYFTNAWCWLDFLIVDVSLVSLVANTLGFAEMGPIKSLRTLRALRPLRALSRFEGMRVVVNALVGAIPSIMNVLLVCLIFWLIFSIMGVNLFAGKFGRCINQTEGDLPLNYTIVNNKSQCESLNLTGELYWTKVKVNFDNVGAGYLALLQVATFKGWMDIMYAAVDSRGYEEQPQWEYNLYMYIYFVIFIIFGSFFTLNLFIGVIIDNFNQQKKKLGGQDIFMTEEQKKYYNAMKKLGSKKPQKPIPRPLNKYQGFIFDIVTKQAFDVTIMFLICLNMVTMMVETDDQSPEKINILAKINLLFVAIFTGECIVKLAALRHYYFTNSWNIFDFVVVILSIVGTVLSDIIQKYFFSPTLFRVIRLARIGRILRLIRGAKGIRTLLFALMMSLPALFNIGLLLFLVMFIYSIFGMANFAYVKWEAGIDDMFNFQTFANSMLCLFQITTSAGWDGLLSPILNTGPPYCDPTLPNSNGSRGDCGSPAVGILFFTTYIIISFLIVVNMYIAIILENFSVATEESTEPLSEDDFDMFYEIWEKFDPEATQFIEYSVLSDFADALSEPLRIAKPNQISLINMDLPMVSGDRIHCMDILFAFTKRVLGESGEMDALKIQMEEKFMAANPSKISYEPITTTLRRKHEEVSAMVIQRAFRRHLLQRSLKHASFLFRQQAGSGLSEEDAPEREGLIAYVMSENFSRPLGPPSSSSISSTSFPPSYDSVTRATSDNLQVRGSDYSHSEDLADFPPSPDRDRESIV

For `NC(=O)OC[C@@H](O)C[C@H](NC(=O)[C@H]1NCCC[C@H]1O)C(=O)N[C@@H](Cc1c[nH]cn1)C(=O)N[C@H](C(=O)O)[C@H](O)c1cnc(Cl)[nH]1` [GE81112A], the “Off-target inhibitory effects, binding assays” value in series [1] is reported as “no critical inhibiting effect”. The Ion channel inhibition entry on hNaV1.2, on hCaV3.1, at hERG, on hNaV1.5 and on hKV4.3 was “did not inhibit” in each case.
